For 20 compounds, IC50 results are on record in patent US6924302B2, “Substituted triazole diamine derivatives as kinase inhibitors” (Ortho McNeil Pharmaceutical, Inc., priority 2000, dated 2005).

Molecules are shown by their SMILES. Some results are limits rather than exact numbers.

The target in one assay is T1, CDK1:Cyclin-B (Homo sapiens, UniProt P06493).
T1 construct: purchased New England Biolabs 6020; host or cells: insect cells
The assay is described as follows: CDK1 Screening Assay. In kind it is biochemical. Conditions: Table 1; read-out: CDK1 IC50. On the procedure:
(§1) 70 μL of the kinase reaction mixture was dispensed into the well of a streptavidin coated FlashPlate™ (Cat. # SMP103, NEN, Boston, Mass.). Then 1 μL of test compound stock in 100% DMSO was added to the wells resulting in a final concentration of 1% DMSO in the reaction with a 100 μl final reaction volume. Next, CDK1:Cyclin-B protein was diluted in 50 mM Tris-HCl pH=8.0, 0.1% BSA at a concentration of 1 ng per μL and 30 μl (30 ng enzyme per test well) was added to each well to initiate the reaction. The reaction was incubated for one hour at 30° C. At the end of the 1-hour incubation, the reaction was terminated by aspirating the reaction mixture from the plate and washing the wells twice with PBS containing 100 mM EDTA. The histone-H1 biotinylated peptide substrate became immobilized on the Flashplate™ and the incorporation of ^33P-γ-ATP was measured by reading the plate on a scintillation counter. Inhibition of the enzymatic activity of CDK1 was measured by observing a reduced amount of ^33P-γ-ATP incorporated into the immobilized peptide.
Assays to test compound inhibition of other kinases were preformed using methods that measure the amount of phosphorylation of a biotinylated peptide substrate. Biotinylated peptide substrates were selected from the literature as appropriate for the enzyme being evaluated. […] Assay conditions vary slightly for each protein kinase, for example, insulin receptor kinase requires 10 mM MnCl2 for activity and Calmodulin-dependent protein kinase requires calmodulin and 10 mM CaCl2. These assay conditions are known in the art. The reaction mixture was dispensed into the wells of a streptavidin coated Flashplate and 1 μl drug stock in 100% DMSO was added to a 100 μl reaction volume resulting in a final concentration of 1% DMSO on the reaction. Enzyme was diluted in 50 mM Tris-HCl pH=8.0, 0.1% BSA and add to each well. The reaction was incubated for one hour at 30° C. in the presence of compound. After one hour the reaction mix was aspirated from the plate and the plate was washed with PBS containing 100 mM EDTA. The plate was read on a scintillation counter to determine ^33P-γ-ATP incorporated into the immobilized peptide. Test compounds were assayed in duplicate at 8 concentrations [100 uM, 10 uM, 1 uM, 100 nM, 10 nM, 1 nM, 100 pM, 10 pM]. A maximum and minimum signal for the assay was determined on each plate. The IC50 was calculated from the dose response curve of the percent inhibition of the maximum signal in the assay according to the formula [max signal—background/test compound signal—background (100)=% inhibition] by graphing the percent inhibition against the log concentration of test compound. Known inhibitor compounds appropriate for the kinase being assayed were also included on each plate. […]

Assay [1] has as its target T2, VEGF-R (vascular endothelial growth factor receptor-2) (Rattus norvegicus, UniProt O08775).
T2 construct: polyhistidine (6xHIS) (N)
Description: VEGF-R Screening Assay. In kind it is biochemical. Conditions: Table 1; read-out: VEGF-R IC50. As to the method:
as §1, with “a 100 μL final reaction” for “a 100 μl final reaction”, “volume. Next, soluble rat tyrosine kinase containing an N-terminal 6×HIS tag was diluted” for “volume. Next, CDK1:Cyclin-B protein was diluted”, “concentration of 5 ng per” for “concentration of 1 ng per”, “and 30 μL (150 ng enzyme” for “and 30 μl (30 ng enzyme”, “EDTA. The PLC1 biotinylated peptide” for “EDTA. The histone-H1 biotinylated peptide”, “activity of the VEGF-R was measured” for “activity of CDK1 was measured”
Assays to test compound inhibition of other kinases were preformed using methods that measure the amount of phosphorylation of a biotinylated peptide substrate. Biotinylated peptide substrates were selected from the literature as appropriate for the enzyme being evaluated. […] Assay conditions vary slightly for each protein kinase, for example, insulin receptor kinase requires 10 mM MnCl2 for activity and Calmodulin-dependent protein kinase requires calmodulin and 10 mM CaCl2. These assay conditions are known in the art. The reaction mixture was dispensed into the wells of a streptavidin coated Flashplate and 1 μl drug stock in 100% DMSO was added to a 100 μl reaction volume resulting in a final concentration of 1% DMSO on the reaction. Enzyme was diluted in 50 mM Tris-HCl pH=8.0, 0.1% BSA and add to each well. The reaction was incubated for one hour at 30° C. in the presence of compound. After one hour the reaction mix was aspirated from the plate and the plate was washed with PBS containing 100 mM EDTA. The plate was read on a scintillation counter to determine ^33P-γ-ATP incorporated into the immobilized peptide. Test compounds were assayed in duplicate at 8 concentrations [100 uM, 10 uM, 1 uM, 100 nM, 10 nM, 1 nM, 100 pM, 10 pM]. A maximum and minimum signal for the assay was determined on each plate. The IC50 was calculated from the dose response curve of the percent inhibition of the maximum signal in the assay according to the formula [max signal—background/test compound signal—background (100)=% inhibition] by graphing the percent inhibition against the log concentration of test compound. Known inhibitor compounds appropriate for the kinase being assayed were also included on each plate.
CDK2 in complex with cyclin A is commercially available (Upstate Biotech, Lake Placid, N.Y.). The CDK4 complex was composed of a mouse CDK4 protein and a mouse Cyclin D1 protein (The mouse CDK4 protein was genetically fused to an N-terminal Flag-epitope tag and the mouse Cyclin D1 protein was fused with an N-terminal AU-1 epitope tag. The genes encoding these proteins were transferred to commercially available baculoviral vectors. The recombinant CDK4/D1 complex was then made by co-infecting commercially available insect cells with viruses carrying these two constructs). […] ERK-1 protein (Discontinued from Calbiochem). EGFR (epidermal growth factor receptor) is purified from human A431 cell membranes (Sigma, St. Louis, Mo., Cat.# E3641).

T1 sequence (P06493 whole entry): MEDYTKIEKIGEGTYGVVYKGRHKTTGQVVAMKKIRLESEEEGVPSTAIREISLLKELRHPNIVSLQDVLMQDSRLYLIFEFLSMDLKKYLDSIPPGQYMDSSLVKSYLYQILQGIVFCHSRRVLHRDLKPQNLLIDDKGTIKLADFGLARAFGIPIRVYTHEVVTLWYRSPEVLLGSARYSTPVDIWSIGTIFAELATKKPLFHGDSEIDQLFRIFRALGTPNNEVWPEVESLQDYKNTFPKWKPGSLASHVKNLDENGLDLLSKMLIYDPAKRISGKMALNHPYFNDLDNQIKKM
T1 sequence (P14635 whole entry partner): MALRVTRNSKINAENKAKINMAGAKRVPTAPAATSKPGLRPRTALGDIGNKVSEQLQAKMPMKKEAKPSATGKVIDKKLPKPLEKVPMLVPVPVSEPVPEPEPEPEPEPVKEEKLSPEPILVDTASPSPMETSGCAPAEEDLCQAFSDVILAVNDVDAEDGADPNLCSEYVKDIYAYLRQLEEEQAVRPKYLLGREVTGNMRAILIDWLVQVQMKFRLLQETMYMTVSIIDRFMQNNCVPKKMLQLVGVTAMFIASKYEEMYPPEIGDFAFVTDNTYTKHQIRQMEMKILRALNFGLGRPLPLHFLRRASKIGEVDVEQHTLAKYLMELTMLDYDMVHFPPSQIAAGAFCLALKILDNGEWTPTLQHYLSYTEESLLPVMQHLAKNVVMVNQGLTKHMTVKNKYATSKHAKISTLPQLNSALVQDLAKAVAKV
T2 sequence (O08775 786-1343): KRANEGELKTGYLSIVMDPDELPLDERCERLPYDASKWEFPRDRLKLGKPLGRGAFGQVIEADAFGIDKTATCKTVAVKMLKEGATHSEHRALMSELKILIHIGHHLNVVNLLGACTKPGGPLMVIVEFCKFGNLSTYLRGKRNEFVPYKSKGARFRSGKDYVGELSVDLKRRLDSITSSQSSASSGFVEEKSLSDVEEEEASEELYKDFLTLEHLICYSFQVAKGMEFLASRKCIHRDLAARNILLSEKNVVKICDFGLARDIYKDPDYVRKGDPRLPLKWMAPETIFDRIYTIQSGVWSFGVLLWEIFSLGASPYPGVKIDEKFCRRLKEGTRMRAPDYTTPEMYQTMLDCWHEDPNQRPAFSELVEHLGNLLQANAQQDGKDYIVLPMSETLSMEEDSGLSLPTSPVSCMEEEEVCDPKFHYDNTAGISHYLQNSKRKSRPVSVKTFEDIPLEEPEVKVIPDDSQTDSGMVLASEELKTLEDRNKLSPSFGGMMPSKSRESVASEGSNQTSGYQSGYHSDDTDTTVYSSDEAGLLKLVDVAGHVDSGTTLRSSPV

With `Nc1nc(Nc2ccc(S(N)(=O)=O)cc2)nn1C(=O)c1c(F)ccc(F)c1F` [Cpd 3, 4-[[5-amino-1-(2,3,6-trifluorobenzoyl)-1H-1,2,4-triazol-3-yl]amino]-benzenesulfonamide], the IC50 – broadly, the midpoint of a concentration-inhibition curve – at CDK1:Cyclin-B turned out to be 0.008 µM; in assay [1] it was 0.332 µM.

For the compound `Nc1nc(Nc2ccc(S(N)(=O)=O)cc2)nn1C(=O)c1ccccc1F` [Cpd 4, 4-[[5-amino-1-(2-fluorobenzoyl)-1H-1,2,4-triazol-3-yl]amino]-benzenesulfonamide], the concentration for half-maximal inhibition (IC50) on CDK1:Cyclin-B came out at 0.0223 µM; in assay [1], 0.387 µM.

Take `Nc1nc(Nc2ccc(S(N)(=O)=O)cc2)nn1C(=O)c1ccc(F)cc1F` [Cpd 5, 4-[[5-amino-1-(2,4-difluorobenzoyl)-1H-1,2,4-triazol-3-yl]amino]-benzenesulfonamide]: the half-inhibitory concentration (IC50) at CDK1:Cyclin-B was found to be 0.144 µM; in assay [1], 0.521 µM.

For the compound `Nc1nc(Nc2ccc(S(N)(=O)=O)cc2)nn1C(=O)c1c(F)cccc1C(F)(F)F` [Cpd 6, 4-[[5-amino-1-[2-fluoro-6-(trifluoromethyl)benzoyl]-1H-1,2,4-triazol-3-yl]amino]-benzenesulfonamide], the IC50 at CDK1:Cyclin-B stood at 0.0394 µM; in assay [1] it was 8.14 µM.

`Nc1nc(Nc2ccc(S(N)(=O)=O)cc2)nn1C(=O)c1c(Cl)cccc1Cl` [Cpd 7, 4-[[5-amino-1-(2,6-dichlorobenzoyl)-1H-1,2,4-triazol-3-yl]amino]-benzenesulfonamide]: the values for the IC50 (at CDK1:Cyclin-B; in assay [1]) were 0.057 µM and more than 10 µM, respectively.

With `Nc1nc(Nc2ccc(S(N)(=O)=O)cc2)nn1C(=O)c1c(Cl)cc(Cl)cc1Cl` [Cpd 8, 4-[[5-amino-1-(2,4,6-trichlorobenzoyl)-1H-1,2,4-triazol-3-yl]amino]-benzenesulfonamide], the results for the IC50 (at CDK1:Cyclin-B; in assay [1]) were 0.136 µM and more than 100 µM, respectively.

Turning to `Nc1nc(Nc2ccc(S(N)(=O)=O)cc2)nn1C(=O)c1ccccc1[N+](=O)[O-]` [Cpd 9, 4-[[5-amino-1-(2-nitrobenzoyl)-1H-1,2,4-triazol-3-yl]amino]-benzenesulfonamide], the figures for the IC50 (on CDK1:Cyclin-B; in assay [1]) were 0.039 µM and 1.6 µM, respectively.

`COc1cccc(OC)c1C(=O)n1nc(Nc2ccc(S(N)(=O)=O)cc2)nc1N` [Cpd 10, 4-[[5-amino-1-(2,6-dimethoxybenzoyl)-1H-1,2,4-triazol-3-yl]amino]-benzenesulfonamide]: the values for the IC50 (at CDK1:Cyclin-B; in assay [1]) were 0.252 µM and 0.491 µM, respectively.

For `Cc1cc(C)c(C(=O)n2nc(Nc3ccc(S(N)(=O)=O)cc3)nc2N)c(C)c1` [Cpd 11, 4-[[5-amino-1-(2,4,6-trimethylbenzoyl)-1H-1,2,4-triazol-3-yl]amino]-benzenesulfonamide], the IC50 is 0.305 µM at CDK1:Cyclin-B and more than 100 µM in assay [1].

On to `Nc1nc(Nc2ccc(S(N)(=O)=O)cc2)nn1C(=O)c1ccccc1` [Cpd 12, 4-[(5-amino-1-benzoyl-1H-1,2,4-triazol-3-yl)amino]-benzenesulfonamide], for which the IC50 on CDK1:Cyclin-B turned out to be 0.0454 µM; in assay [1] it was 0.0841 µM.

For the compound `Nc1nc(Nc2ccc(S(=O)(=O)N3CCCCC3)cc2)nn1C(=O)c1c(F)cccc1F` [Cpd 13, 1-(2,6-difluorobenzoyl)-N^3-[4-(1-piperidinylsulfonyl)phenyl]-1H-1,2,4-triazole-3,5-diamine], the IC50 at CDK1:Cyclin-B turned out to be 0.535 µM; in assay [1], 0.532 µM.

With `CCOc1ccsc1C(=O)n1nc(Nc2ccc(S(N)(=O)=O)cc2)nc1N` [Cpd 18, 4-[[5-amino-1-[(3-ethoxy-2-thienyl)carbonyl]-1H-1,2,4-triazol-3-yl]amino]-benzenesulfonamide], the IC50 on CDK1:Cyclin-B stood at 0.067 µM; in assay [1], 0.058 µM.

Take `CC(=O)Nc1ccsc1C(=O)n1nc(Nc2ccc(S(N)(=O)=O)cc2)nc1N` [Cpd 19, N-[2-[[5-amino-3-[[4-(aminosulfonyl)phenyl]amino]-1H-1,2,4-triazol-1-yl]carbonyl]-3-thienyl]-acetamide]: the IC50 is 0.0339 µM on CDK1:Cyclin-B and 0.291 µM in assay [1].

Consider `Cc1ccc(C(=O)n2nc(Nc3ccc(S(N)(=O)=O)cc3)nc2N)s1` [Cpd 20, 4-[[5-amino-1-[(5-methyl-2-thienyl)carbonyl]-1H-1,2,4-triazol-3-yl]amino]-benzenesulfonamide], for which the figures for the IC50 (on CDK1:Cyclin-B; in assay [1]) were 0.0044 µM and 0.031 µM, respectively.

Turning to `Nc1nc(Nc2ccc(S(N)(=O)=O)cc2)nn1C(=O)c1ccc(Br)s1` [Cpd 21, 4-[[5-amino-1-[(5-bromo-2-thienyl)carbonyl]-1H-1,2,4-triazol-3-yl]amino]-benzenesulfonamide], the IC50 was 0.0088 µM at CDK1:Cyclin-B and 0.023 µM in assay [1].

With `CC(=O)c1ccc(C(=O)n2nc(Nc3ccc(S(N)(=O)=O)cc3)nc2N)s1` [Cpd 22, 4-[[1-[(5-acetyl-2-thienyl)carbonyl]-5-amino-1H-1,2,4-triazol-3-yl]amino]-benzenesulfonamide], the IC50 at CDK1:Cyclin-B turned out to be 0.0318 µM; in assay [1], 0.233 µM.

Consider `Cc1ccsc1C(=O)n1nc(Nc2ccc(S(=O)(=O)N3CCCCC3)cc2)nc1N` [Cpd 24, 1-[(3-methyl-2-thienyl)carbonyl]-N^3-[4-(1-piperidinylsulfonyl)phenyl]-1H-1,2,4-triazole-3,5-diamine], for which the figures for the IC50 (on CDK1:Cyclin-B; in assay [1]) were 0.282 µM and 0.0674 µM, respectively.

As for `Nc1nc(Nc2ccc(S(N)(=O)=O)cc2)nn1C(=O)c1ccco1` [Cpd 25, 4-[[5-amino-1-(2-furanylcarbonyl)-1H-1,2,4-triazol-3-yl]amino]-benzenesulfonamide], the IC50 is 0.0195 µM on CDK1:Cyclin-B and 0.064 µM in assay [1].

In the case of `Nc1nc(Nc2ccc(S(N)(=O)=O)cc2)nn1C(=O)c1ccno1` [Cpd 26, 4-[[5-amino-1-(5-isoxazolylcarbonyl)-1H-1,2,4-triazol-3-yl]amino]-benzenesulfonamide], the figures for the IC50 (at CDK1:Cyclin-B; in assay [1]) were 18.4 µM and approximately 100 µM, respectively.

With `Nc1nc(Nc2ccc(S(N)(=O)=O)cc2)nn1C(=O)c1ccccn1` [Cpd 27, 4-[[5-amino-1-(2-pyridinylcarbonyl)-1H-1,2,4-triazol-3-yl]amino]-benzenesulfonamide], the results for the IC50 (on CDK1:Cyclin-B; in assay [1]) were approximately 100 µM and more than 100 µM, respectively.
